ChEMBL document CHEMBL5154753, “Discovery and Structural Optimization of Toddacoumalone Derivatives as Novel PDE4 Inhibitors for the Topical Treatment of Psoriasis” (J Med Chem, 2022)
Active and inactive are the calls of the source. The rule behind the calls is not given here.

Legend:
[1] = Toxicity in BALB/c mouse assessed as skin lesions at 62.5 mg as 4% ointment, TOP daily and measured upto 7 days; details: in vivo, topical_or_ocular, 168 h, time < 7 day
[2] = Volume of distribution at steady state in ICR mouse at 10 mg/kg, iv measured upto 24 hrs by LC-MS/MS analysis; assay type: ADME, organism-based; details: in vivo, read-out: Vdss
[3] = organism: Mus musculus; test: Anti-psoriatic activity in IMQ-induced BALB/c psoriasis mouse model assessed as reduction in epidermal cell proliferation at 62.5 mg as 2% ointment, TOP daily for 7 days by Ki67+ expression based immunohistochemistry analysis; assay type: functional, organism-based; details: time 7.0 day
[4] = Toxicity in BALB/c mouse assessed as skin lesions at 62.5 mg as 2% ointment, TOP daily and measured upto 7 days; details: in vivo, topical_or_ocular, 168 h, time < 7 day
[5] = Oral bioavailability in ICR mouse at 30 mg/kg measured upto 24 hrs by LC-MS/MS analysis; assay type: ADME, organism-based; details: in vivo
[6] = molecular target: 3',5'-cyclic-AMP phosphodiesterase 4D (Homo sapiens, UniProt Q08499); test: Inhibition of PDE4D2 (86 to 413 residues) (unknown origin) expressed in Escherichia coli BL21 using [3H-GMP] or [3H-AMP] as substrate incubated for 15 mins by liquid scintillation counting method
[7] = organism: Mus musculus; test: Anti-psoriatic activity in IMQ-induced BALB/c psoriasis mouse model assessed as reduction in erythema score at 62.5 mg as 2% ointment, TOP daily and measured upto 7 days; assay type: functional, organism-based; details: time <= 7.0 day, DDE = dose-dependent effect
[8] = C0 in ICR mouse at 10 mg/kg, iv measured upto 24 hrs by LC-MS/MS analysis; assay type: ADME, organism-based; details: in vivo
[9] = Tmax in ICR mouse at 30 mg/kg, po measured upto 24 hrs by LC-MS/MS analysis; assay type: ADME, organism-based; details: in vivo
[10] = system: Mus musculus; test: Anti-psoriatic activity in IMQ-induced BALB/c psoriasis mouse model assessed as reduction in erythema score at 10 mg/kg, po for 7 days; assay type: functional, organism-based; details: time 7.0 day
[11] = molecular target: cAMP and cAMP-inhibited cGMP 3',5'-cyclic phosphodiesterase 10A (Homo sapiens, UniProt Q9Y233); test: Inhibition of PDE10A2 (449 to 770 residues) (unknown origin) expressed in Escherichia coli BL21 using [3H-GMP] or [3H-AMP] as substrate incubated for 15 mins by liquid scintillation counting method
[12] = Toxicity in IMQ-induced BALB/c psoriasis mouse model assessed as body weight loss at 62.5 mg as 2% ointment, TOP daily and measured upto 7 days; details: in vivo, topical_or_ocular, 168 h, time < 7 day
[13] = Stability in mouse liver microsomes assessed as half life measure upto 45 mins in presence of NADPH by LC-MS analysis; assay type: ADME, Microsome
[14] = AUC (0 to t) in ICR mouse at 30 mg/kg, po measured upto 24 hrs by LC-MS/MS analysis; assay type: ADME, organism-based; set-up: time < 24 hrs, dose 30 mg/kg, route po; details: in vivo
[15] = AUC (0 to infinity) in ICR mouse at 10 mg/kg, iv measured upto 24 hrs by LC-MS/MS analysis; assay type: ADME, organism-based; set-up: time < 24 hrs, dose 10 mg/kg, route iv; details: in vivo
[16] = organism: Mus musculus; test: Anti-psoriatic activity in IMQ-induced BALB/c psoriasis mouse model assessed as reduction in dermal cell proliferation at 62.5 mg as 4% ointment, TOP daily for 7 days by Ki67+ expression based immunohistochemistry analysis; assay type: functional, organism-based; details: time 7.0 day
[17] = organism: Mus musculus; test: Anti-psoriatic activity in IMQ-induced BALB/c psoriasis mouse model assessed as reduction IMQ- induced immune response by measuring spleen weight loss at 62.5 mg as 4% ointment, TOP daily and measured upto 7 days; assay type: functional, organism-based; details: time <= 7.0 day
[18] = Half life in ICR mouse at 30 mg/kg, po measured upto 24 hrs by LC-MS/MS analysis; assay type: ADME, organism-based; details: in vivo
[19] = system: Mus musculus; test: Anti-psoriatic activity in IMQ-induced BALB/c psoriasis mouse model assessed as reduction in thickness score at 10 mg/kg, po for 7 days; assay type: functional, organism-based; details: time 7.0 day
[20] = system: RAW264.7; test: Cytotoxicity against mouse RAW264.7 cells assessed as cell viability incubated for 48 hrs; assay type: toxicity, cell-based; details: raw264.7, 48 h
[21] = Half life in ICR mouse at 10 mg/kg, iv measured upto 24 hrs by LC-MS/MS analysis; assay type: ADME, organism-based; details: in vivo
[22] = system: Mus musculus; test: Anti-psoriatic activity in IMQ-induced BALB/c psoriasis mouse model assessed as reduction IMQ- induced immune response by measuring change in spleen weight at 10 mg/kg, po for 7 days; assay type: functional, organism-based; details: time 7.0 day
[23] = organism: Mus musculus; test: Anti-psoriatic activity in IMQ-induced BALB/c psoriasis mouse model assessed as reduction in thickness score at 62.5 mg as 4% ointment, TOP daily and measured upto 7 days; assay type: functional, organism-based; details: time <= 7.0 day, DDE = dose-dependent effect
[24] = system: RAW264.7; test: Anti-inflammatory activity against mouse RAW264.7 cells assessed as decrease in LPS-induced TNF-alpha mRNA levels incubated for 4 hrs followed LPS-stimulation for 24 hrs by SYBR green staining based qRT-PCR analysis; assay type: functional, cell-based; details: time 28.0 hrs, DDE = dose-dependent effect
[25] = system: RAW264.7; test: Anti-inflammatory activity against mouse RAW264.7 cells assessed as decrease in LPS-induced IL-6 mRNA levels incubated for 4 hrs followed LPS-stimulation for 24 hrs by SYBR green staining based qRT-PCR analysis; assay type: functional, cell-based; details: time 28.0 hrs, DDE = dose-dependent effect

cAMP and cAMP-inhibited cGMP 3',5'-cyclic phosphodiesterase 10A, sequence (Q9Y233 whole entry, the tested form may be a part): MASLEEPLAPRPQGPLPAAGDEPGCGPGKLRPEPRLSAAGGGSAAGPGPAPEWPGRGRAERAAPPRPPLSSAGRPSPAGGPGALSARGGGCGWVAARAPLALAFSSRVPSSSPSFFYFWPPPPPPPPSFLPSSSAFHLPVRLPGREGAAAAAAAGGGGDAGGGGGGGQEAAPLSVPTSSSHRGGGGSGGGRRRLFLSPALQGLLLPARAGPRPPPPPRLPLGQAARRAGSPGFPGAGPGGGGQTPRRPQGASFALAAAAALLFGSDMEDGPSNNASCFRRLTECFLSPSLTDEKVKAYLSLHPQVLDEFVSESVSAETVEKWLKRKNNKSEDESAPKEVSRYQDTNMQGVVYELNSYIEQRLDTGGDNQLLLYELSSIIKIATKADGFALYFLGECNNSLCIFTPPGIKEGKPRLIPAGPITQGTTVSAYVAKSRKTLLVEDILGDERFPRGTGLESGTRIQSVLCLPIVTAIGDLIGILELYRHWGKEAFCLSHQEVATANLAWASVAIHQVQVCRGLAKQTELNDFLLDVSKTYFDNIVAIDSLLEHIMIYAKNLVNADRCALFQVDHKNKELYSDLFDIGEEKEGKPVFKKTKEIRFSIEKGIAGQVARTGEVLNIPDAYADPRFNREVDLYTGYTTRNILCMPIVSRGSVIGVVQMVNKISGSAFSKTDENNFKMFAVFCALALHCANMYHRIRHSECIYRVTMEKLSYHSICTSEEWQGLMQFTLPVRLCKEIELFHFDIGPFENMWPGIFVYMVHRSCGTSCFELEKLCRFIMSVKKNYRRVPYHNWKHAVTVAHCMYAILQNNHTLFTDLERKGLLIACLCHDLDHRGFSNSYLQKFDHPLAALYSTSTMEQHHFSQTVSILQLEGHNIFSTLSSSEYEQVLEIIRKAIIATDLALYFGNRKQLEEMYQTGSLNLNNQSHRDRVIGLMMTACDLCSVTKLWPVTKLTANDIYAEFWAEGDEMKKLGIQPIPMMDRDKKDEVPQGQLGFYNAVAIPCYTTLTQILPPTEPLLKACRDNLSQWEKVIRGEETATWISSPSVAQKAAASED
3',5'-cyclic-AMP phosphodiesterase 4D, sequence (Q08499 whole entry, the tested form may be a part): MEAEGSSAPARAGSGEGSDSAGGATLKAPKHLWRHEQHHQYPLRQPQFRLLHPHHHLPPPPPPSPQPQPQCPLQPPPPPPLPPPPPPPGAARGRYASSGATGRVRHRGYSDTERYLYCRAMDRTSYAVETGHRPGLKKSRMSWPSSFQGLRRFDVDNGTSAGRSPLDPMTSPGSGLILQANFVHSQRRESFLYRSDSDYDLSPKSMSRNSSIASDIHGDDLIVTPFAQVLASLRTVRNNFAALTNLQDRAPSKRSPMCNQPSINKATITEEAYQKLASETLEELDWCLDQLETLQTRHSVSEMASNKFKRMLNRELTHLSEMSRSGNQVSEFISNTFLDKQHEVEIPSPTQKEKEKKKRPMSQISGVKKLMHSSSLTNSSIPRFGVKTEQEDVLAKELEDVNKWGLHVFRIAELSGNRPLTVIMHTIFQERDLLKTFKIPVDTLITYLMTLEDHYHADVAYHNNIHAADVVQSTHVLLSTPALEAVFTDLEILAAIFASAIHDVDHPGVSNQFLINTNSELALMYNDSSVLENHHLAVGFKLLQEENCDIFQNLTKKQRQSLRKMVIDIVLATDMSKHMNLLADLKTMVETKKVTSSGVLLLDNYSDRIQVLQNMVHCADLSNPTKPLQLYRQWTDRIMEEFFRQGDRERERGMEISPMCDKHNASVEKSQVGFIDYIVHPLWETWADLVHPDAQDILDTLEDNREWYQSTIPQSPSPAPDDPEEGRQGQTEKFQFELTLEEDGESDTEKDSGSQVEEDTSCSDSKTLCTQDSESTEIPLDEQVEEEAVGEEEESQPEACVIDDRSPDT

- Vd [2]: 0.77 L/kg
- bioavailability [5]: 14.4%
- IC50 [6]: 3.1 nM
- C0 at 24 h [8]: 20600 ng/mL
- Tmax [9]: 60 min
- IC50 [11]: 1760 nM
- half-life [13]: 1.3 min
- AUC(0-t) at 24 h [14]: 1130 ng·h/mL
- AUC(0-inf) [15]: 2620 ng·h/mL
- half-life [18]: 109 min
- half-life [21]: 55.2 min
SMILES: CCn1c(=O)c2c(c3ccc(C)nc31)O[C@@](C)(CCO)C[C@H]2C=C(C)C
- Activity [1]: Non-Toxic
- Activity [3]: Active
- Activity [4]: Non-Toxic
- Activity [7]: Dde
- Activity [10]: Active
- Activity [12]: Non-Toxic
- Activity [16]: Active
- Activity [17]: Active
- Activity [19]: Active
- Activity [20]: Non-Toxic
- Activity [22]: Active
- Activity [23]: Dde
- Activity [24]: Dde
- Activity [25]: Dde
